Source: patent publication US20200222410A1, “NUCLEOCYTOPLASMIC REGULATOR OF AUTOPHAGY-ASSOCIATED TRANSCRIPTION FACTORS” (BROWN UNIVERSITY, priority 2017, published 2020)
Where “and” joins values, the source holds several entries; their conditions need not be identical. Equal entries are not always repeated. Entries after “also recorded” stand apart in the source; their conditions may differ.

Experiments:
TFEB = test: TFEB-GFP nuclear localization in HeLa cells; type: cell-based, human; conditions: TFEB-GFP-expressing HeLa cells, 1 μM, 6 hours
Method: Cell culture: HeLa cells (ATCC) and HeLa cells expressing TFEB-GFP (S. Ferguson lab) were grown in 6-well plates on a coverslip for 24 hours in DMEM High Glucose (Genesee Scientific) containing 2 mM L-Glutamine, 1% Penicillin-Strep and 10% Fetal Bovine Serum (GenClone). For RNAi experiments, both HeLa cell lines were transfected with Silencer Select siRNA against XPO1 (5 nM) or TFEB (10 nM) or negative control siRNA #2 (Thermo Fisher Scientific) with RNAi Max (Thermo Fisher Scientific) and Opti-MEM (Gibco) for 48 hours. Cells were incubated for another 6 hours with DMSO 0.1%, Torin 1 […], KPT-330, KPT-276, KPT-185 or KPT-335 (1 μM) (Selleckchem). For Lysotracker analysis, cells on coverslips were previously grown with vehicle or compounds (including GSK-3β inhibitor VIII or Leptomycin b (10 nM) for 6 hours followed by a one hour incubation with 100 nM of Lysotracker Red DND-99 (Thermo Fisher Scientific) and live cells were imaged. Coverslips were mounted for imaging onto slides and imaged with a Zeiss Axiovert 200M Fluorescent Microscope. Lysotracker signal was quantified by measuring signal intensity over background of individual cells using ImageJ. For imaging TFEB-GFP signal, cells were fixed in methanol. Nuclear localization was quantified by counting cells that had higher GFP intensity in the nucleus compared to the cytoplasm measured using ImageJ.

HLH-30 = test: HLH-30::GFP nuclear localization in nematodes (fluorescent microscopy); type: in vivo, C. elegans
Method: The nematode C. elegans is an art-recognized system to identify genetic and pharmacological modifiers of various cellular processes. As such, an unbiased genome-wide RNAi screen for genetic modifiers of the activity of HLH-30/TFEB was performed (FIG. 1B). Specifically, enhancers of HLH-30 nuclear localization were searched for by following the distribution of HLH-30 fused to GFP.
HLH-30-GFP-expressing nematodes were fed HT115 E. coli bacteria transformed with a plasmid containing the L4440 backbone and a portion of the cDNA sequence complementary to the coding sequence of the xpo-1 gene. Nuclear enrichment was measured by fluorescent microscopy after animals were treated from eggs to day 1 of adulthood. The RNAi was based on the cosmid sequence ZK742.1 of the C. elegans genome. The sequence of the RNAi used is:
Fluorescent microscopy imaging: Transgenic worms were mounted on a 2% agarose pad with 0.1% sodium azide and imaged using a Zeiss Discovery V20 fluorescent microscope.
Animals were fed OP50 E. coli with 0.2% of DMSO (vehicle control) or 0.2% DMSO with KPT-330 at 0.2 mM. Nuclear localization of the HLH-30-GFP reporter and survival was measured.

C. elegans [1] = test: Lifespan analysis of C. elegans; type: in vivo; conditions: for lifespan of treated animals compared to vehicle-treated controls: C. elegans wild-type; for % Difference in mean lifespan vs vehicle control / Drug treatment Mean Lifespan: N2 wild-type; for Drug treatment Mean Lifespan: 20° C.
Method: Lifespan analysis: Worms were synchronized by bleaching and eggs were grown on OP50 E. coli during development. Day 1 adults were transferred onto corresponding RNAi plates and kept at 20° C. Mantel-Cox log rank statistical analyses were calculated using Stata 13.0.

C. elegans [2] = test: Heat stress survival assay (37° C.); type: in vivo; conditions: 100 μM
Method: (§1) Proteostasis analyses: Heat shock analyses were performed at 37° C. and scoring survival every hour. Aggregation was visualized by fluorescent microscopy using strains expressing Q35::GFP in muscle (AM140) (Morley et al., 2002, The threshold for polyglutamine-expansion protein aggregation and cellular toxicity is dynamic and influenced by aging in Caenorhabditis elegans. Proc Natl Acad Sci USA 99, 10417-10422) or Q40::YFP in intestine (GF78) (Mohri-Shiomi and Garsin, (2008) Insulin signaling and the heat shock response modulate protein homeostasis in the Caenorhabditis elegans intestine during infection. J Biol Chem 283, 194-201). Aggregate clearance was assayed with a strain (GMC101) (McColl et al., (2012). Utility of an improved model of amyloid-beta (Abeta(1)(−) (4)(2)) toxicity in Caenorhabditis elegans for drug screening for Alzheimer's disease. Mol Neurodegener 7, 57). […]) inducing expression of human Aβ42 at 25° C. Following a 5-day RNAi feeding, paralysis was assayed after 48 hours at 25° C.

dsodH71Y flies = test: Lifespan analysis of ALS model in flies (dsodH71Y); type: in vivo, D. melanogaster; conditions: for Drug treatment Mean Lifespan: H71Y Sod-1 (dsod) flies, 25° C.; for % Difference in mean lifespan vs vehicle control: H71Y flies
Method: l Lifespan analysis in Drosophila: Measurement of lifespan (25° C.) in dsodH71Y was performed as previously described in the art (Sahin et al., 2017, Human SOD1 ALS Mutations in a Drosophila Knock-In Model Cause Severe Phenotypes and Reveal Dosage-Sensitive Gain- and Loss-of-Function Components. Genetics 205, 707-723). The software Stata 13.0 was used to perform Mantel-Cox log rank statistical analyses.

mCherry::GFP::LGG-1 = test: Autophagy analysis with tandem reporter mCherry::GFP::LGG-1 (autophagosome and autolysosome formation); type: in vivo, C. elegans; conditions: 50 or 100 μM, visualized after 48 hours
Method: Autophagy analysis: Worms expressing the tandem reporter GFP-mCherry-LGG-1 (Chang et al., (2017). Spatiotemporal regulation of autophagy during Caenorhabditis elegans aging. eLife 6) were treated from L4/day 1 of adulthood and imaged using an LSM 800 Zeiss Confocal Laser Scanning Microscope as previously described (Chang et al., (2017). Spatiotemporal regulation of autophagy during Caenorhabditis elegans aging. eLife 6). To functionally assess the effect of genetically or pharmacologically inhibiting xpo-1 on the autophagic pathway, autophagic flux (i.e. fusion of autophagosome to lysosome) was measured in C. elegans. Several fluorescent reporters of autophagy proteins (including LGG-1/LC3, SQST-1/P62) have been designed to observe and quantify autophagic flux. […] These animals were used to determine the effect of silencing (RNAi) xpo-1 on autophagy using fluorescent microscopy. The accumulation of unique red punctae represents active autolysosome formation, indicative of activated autophagy.

[3] = test system: polyQ-containing protein aggregates; test: polyQ aggregate formation (Q35::GFP muscle, Q40::YFP intestine); type: in vivo, C. elegans; conditions: day 5 animals, 100 μM
Method: as §1

In the case of `COc1cc(-c2ncn(/C=C\C(=O)OC(C)C)n2)cc(C(F)(F)F)c1` [KPT-185], the “nuclear localization of TFEB” value (TFEB) is reported as “marked increase in nuclear localization of TFEB”.

`O=C(/C=C\n1cnc(-c2cc(C(F)(F)F)cc(C(F)(F)F)c2)n1)N1CC(F)(F)C1` [KPT-276] was tested, and the “nuclear enrichment of HLH-30” value (HLH-30; 25 μM) was “nuclear enrichment of HLH-30”, the “nuclear localization of TFEB” value (TFEB) was “marked increase in nuclear localization of TFEB” and the “lifespan of treated animals compared to vehicle-treated controls” value (C. elegans [1]) was “lifespan extension”. The “% Difference in mean lifespan vs vehicle control” value (“% Difference in mean lifespan” below) (C. elegans [1]; 25 μM) was 9.4% and the “Drug treatment Mean Lifespan” value (C. elegans [1]; 25 μM) was 23.2 days.

For `O=C(/C=C\n1cnc(-c2cc(C(F)(F)F)cc(C(F)(F)F)c2)n1)NNc1cnccn1` [KPT-330, Selinexor], the “resistance to heat” value (C. elegans [2]; day 1 to day 5 of adulthood) was “improved resistance to heat”, the “% Difference in heat stress survival vs vehicle control” value (C. elegans [2]; N2 wild-type, Day 5 of adulthood) was 18.5% and 34.7% and the “Heat Stress survival (mean, hours)” value (C. elegans [2]; N2 wild-type, Day 5 of adulthood after 5 days of treatment) was 6.4 h and 6.2 h. The “Drug treatment Mean Lifespan” value (dsodH71Y flies; both sexes, 100 μM) was 9.8 days and 13.5 days, the “Drug treatment Mean Lifespan” value (dsodH71Y flies; females, 100 μM) was 12 days and 16.9 days and the “Drug treatment Mean Lifespan” value (dsodH71Y flies; males, 100 μM) was 6.8 days and 6 days. For the same molecule, the “% Difference in mean lifespan” value (dsodH71Y flies; both sexes, 100 μM) was 24.0% and 18.4%, the “% Difference in mean lifespan” value (dsodH71Y flies; females, 100 μM) was 26.3% and 27.1% and the “overall survivorship compared to control” value (dsodH71Y flies; dsodH71Y flies fed 100 μM during adulthood) was “beneficial impact on the overall survivorship”. For the same molecule, the “lifespan of females” value (dsodH71Y flies; dsodH71Y flies, 100 μM) was “extended significantly”, the “Autophagy in pharynx and hypodermal seam cells” value (mCherry::GFP::LGG-1) was “enhanced” and the “formation of polyQ-containing (Q40::YFP) aggregates” value [3] was “reduction in the formation”. The “nuclear localization of HLH-30” value (HLH-30; Day 1 adults, 25, 50 and 100 μM for 72 hours) was “displayed nuclear localization of HLH-30”, the “Nuclear localization of HLH-30::GFP” value (HLH-30; concentrations below 25 μM) was “not detected” and the “nuclear localization of HLH-30” value (HLH-30; lower concentration (data not shown)) was “also led to nuclear localization of HLH-30”. For the same molecule, the “nuclear localization of HLH-30 (fused to GFP)” value (HLH-30; nematodes grown on plates containing 2 mM) was “led to nuclear localization of HLH-30”, the “nuclear localization of TFEB” value (TFEB) was “marked increase in nuclear localization of TFEB” and the “lifespan of treated animals compared to vehicle-treated controls” value (C. elegans [1]) was “significant lifespan extension; also recorded: significant increase in the lifespan”. The “% Difference in mean lifespan” value (C. elegans [1]; 25 μM) was 12.4% and 13.2%, the “Drug treatment Mean Lifespan” value (C. elegans [1]; 25 μM) was 21.7 days and 24 days and the “% Difference in mean lifespan” value (C. elegans [1]; 50 μM) was 9.8% and 17%. The “Drug treatment Mean Lifespan” value (C. elegans [1]; 50 μM) was 21.2 days and 24.8 days, the “% Difference in mean lifespan” value (C. elegans [1]; 100 μM) was 14% and 21.7% and the “Drug treatment Mean Lifespan” value (C. elegans [1]; 100 μM) was 22 days and 25.8 days.

`O=C(/C=C\n1cnc(-c2cc(C(F)(F)F)cc(C(F)(F)F)c2)n1)NNc1ccccn1` [KPT-335, Verdinexor] was tested, and the “nuclear localization of TFEB” value (TFEB) was “marked increase in nuclear localization of TFEB”.
